Laboratory results: US6689762B1, “Composition and methods for treatment of HIV infection” (Enzon Pharmaceuticals, Inc., priority 1998, dated 2004)
Several values for one entry are separate records, joined by “and”; a condition that tells them apart may be missing. Equal values may be shown once.

How the values were obtained:
Assay type in all cases: cell-based
[1] = system: HIV-RT levels of HIV-1 infected CEM/0 cell pellets; experiment: HIV-RT ELISA (Reverse Transcriptase Assay, non-radioactive) in cell pellets of HIV-1 infected CEM/0 T-cells; set-up: % of control (of RANGE) / % of control (of MEAN): concentration or dose not given beside the values; conditions: for MEAN (HIV-RT): Table 5, three wells; for % of control (of RANGE): * single point determination; for MEAN X3 (HIV-RT): Table 9
Excerpt: (§1) The following is a general procedure for the HIV-reverse transcriptase assay:
The cell line used for these studies is CCRF/CEM/O, a human T-leukemic cell line. PEG-ASNase (ONCASPAR) is provided by Rhone-Poulenc Rorer. Saquinavir is commercially available. RPMI-1640 media (Irvine Scientific, Irvine, Calif.) is enriched with 10% Fetal Calf Serum (Gemini Biosource, Calabasas, Calif.), 5% 1M Hepes Buffer solution and 5% Non-essential amino acids (Irvine Scientific, Irvine, Calif.). The drug concentrations used are as follows:
Briefly, 2×10^6 cells/ml are stimulated with PHA+ media for 48 hours at 37° C. with 5% CO2. Also, the same number of cells are incubated in PHA(phytohemagglutinin) free media for 48 hours to serve as the negative control. At this point the cells are inoculated with the HIV-1 virus as per standard protocol. PEG-ASNase and/or Saquinavir are added to the cells in the appropriate concentrations (see above). The control cells are resuspended in drug-free media for the duration of the exposure which lasted seven days. At day five, two 1 ml aliquots of media are removed from the flasks and stored under liquid nitrogen. At day seven, two more 1 ml aliquots of media are removed from the flasks and stored under liquid nitrogen. In addition, the remaining cells are pelleted and stored at −80° C.
The samples produced from this experiment are itemized and then assayed for HIV-RT using the Reverse Transcriptase Assay, non-radioactive (Boehringer Mannheim). The standard curve is determined and the HIV-RT levels for the experimental samples are calculated.
This experiment is carried out using a similar procedure, and the same concentrations of materials as in Experiment 7, however the exposure of the HIV virus in T-cell pellets to PEG-ASNase and Saquinavir alone, and in combination is measured. It should be noted that “PEG” in Table 2a represents PEG-ASNase. […]

[2] = system: HIV-RT in supernatants of HIV-1 infected CEM/0 T-cells; experiment: HIV-RT ELISA in supernatants of HIV-1 infected CEM/0 T-cells; conditions: for inhibition of HIV-RT in supernatants: Experiment 8 text, day 7; for HIV-RT (negative values set to 0): Table 6, per specimen
Experimental: as §1
Materials and Methods: The cell line used for this experiment is CEM/0, a human T-cell leukemic cell line. PEG-ASNase (ONCASPAR) is provided by Rhone-Poulenc Rorer. Saquinavin (SQ) is commercially available. AZT is purchased from Sigma. […] The drug concentrations used are as follows:
(§2) Briefly, 3×10^6 cells/ml are stimulated with PHA+ media for 48 hours at 37° C. with 5% CO2. Also, the same number of cells are incubated in PHA free media for 48 hours to serve as the negative control. At this point the cells are inoculated with the HIV-1 virus as per standard protocol. Note that in this experiment, the HIV containing supernatant from the PLA-stimulated healthy human peripheral mononuclear cells (PBMC) is not removed from the PHA-stimulated CEM/0 cell culture. […] These virus particles are released by already infected T-cells and/or lymph nodes of patients.
(§3) The experimental drugs are added to the cells in the appropriate concentrations at the same time as viral inoculation or 90 minutes after the viral incubation, a time sufficient for the T-cells to be infected and start producing new HIV-1 virus particles. The control cells are resuspended in drug-free media for the duration of the exposure which lasted seven days. Aliquots of media from the control flasks only are obtained on day 5 post Rx. At day seven, three 1 ml each, aliquots of media are removed from the flasks and stored under liquid nitrogen. In addition, the remaining cells are split into three and then pelleted and stored at −80° C.

[3] = system: HIV-RNA in supernatant of HIV-1 infected CEM/0 T-cells; experiment: HIV-1 quantitative RNA assay (HIV-1 Monitor) in supernatants of CEM/0 T-cells; set-up: inhibition of HIV-RNA in the supernatants in comparison to untreated control / % OF CONTROL / % control: concentration or dose not given beside the values; conditions: for N*: day 7 post Rx, PEG 0.400 IU/ml, SAQ 25 uM, AZT 1 uM, combinations PEG 0.233 IU/ml + SAQ 14.52 uM; for inhibition of HIV-RNA in the supernatants in comparison to untreated control: Experiment 6 text; for % control / MEAN N: Table 3; for Log 10 N: Table 3, per flask
Excerpt: It should be noted that “PEG” in Table 3 represents PEG-ASNase.
Materials and Methods: The cell line used for these studies is CEM/0, a human T-cell leukemic cell line. PEG-ASNase (ONCASPAR) is provided by Rhone-Poulenc Rorer. Saquinavin is commercially available. AZT is purchased from Sigma. MISID, a ribonucleotide reductase inhibitor, is as described in Nandy P, Lien E J, Avramis V I, Med. Chem. Res. 1995, 5:664-679. RPMI-1640 media (Irvine Scientific, Irvine, Calif.), is enriched with 10% Fetal Calf Serum (Gemini Biosource, Calabasas, Calif.), 5% 1M Hepes Buffer solution and 5% Non-essential amino acids (Irvine Scientific, Irvine, Calif.). The drug concentrations used are as follows:
as §2, with “from the PHA-stimulated healthy human” for “from the PLA-stimulated healthy human”, “particles are continuously released by” for “particles are released by”
as §3, with “C. Supernatant specimens are obtained form these T-cell cultures and are frozen at −80° C. The samples produced from this experiment are itemized. The cell pellets of the cellular cultures (see Experiment 9) from the 90 minute viral incubation flasks are assayed for HIV-RNA quantitative assay using a kit for the assay, non-radioactive. […] The standard curve is determined and the HIV-RNA levels for the experimental samples are calculated and reported previously.” for “C.”
This experiment is carried out using a similar procedure, and the same concentrations of materials as in Experiment 10, however the exposure of HIV-RNA in T-cell supernatants to a combination of PEG-ASNase, Saquinavir, AZT and 3TC is measured. It should be noted that “PEG” in Table 10 represents PEG-ASNase.

[4] = Experiment 7, monotherapy at IC50 concentrations or combination
[5] = Experiment 10 (3TC) text, cell pellets
[6] = Table 9, per well, listed as SAQ
[7] = Table 2a, per flask, listed as PEG
[8] = Table 9, per well, listed as PEG

Cc1cn([C@H]2C[C@H](N=[N+]=[N-])[C@@H](CO)O2)c(=O)[nH]c1=O [AZT, zidovudine]
inhibition of HIV-RT ([1]; Experiment 7, cell pellets): most dramatic inhibition | % of control (of MEAN) ([1]; Table 5): 0% | HIV-RT ([1]; Table 5, per well, negative values set to 0): 0 pg/well | MEAN (HIV-RT) [1]: 0 pg/well | % of control (of RANGE) ([1]; Table 5): 0% | MEAN X3 (HIV-RT) [1]: 0 ng/well | HIV-RT (negative values set to 0) ([1]; Table 9, per well): 0 ng/well | inhibition of HIV-RT in supernatants [2]: Great inhibition | HIV-RT (negative values set to 0) [2]: 0 pg/well | MEAN ([3]; Table 8): 120691 copies/mL | N* ([3]; Table 8, per specimen, 90 min viral inoculation, MISID 0.685 uM): 120981 copies/mL and 121288 copies/mL and 119805 copies/mL | % OF CONTROL ([3]; Table 8 and Experiment 10): 61.74% | MEAN ([3]; Table 10): 1437 copies/mL | N* ([3]; Table 10, per specimen, 3TC 1 uM): 1203 copies/mL and 1409 copies/mL and 1700 copies/mL | % OF CONTROL ([3]; Table 10 and Experiment 11): 32.48%

CC(C)(C)NC(=O)[C@@H]1C[C@@H]2CCCC[C@@H]2CN1C[C@@H](O)[C@H](Cc1ccccc1)NC(=O)[C@H](CC(N)=O)NC(=O)c1ccc2ccccc2n1 [Saquinavir]
inhibition of HIV-RT in comparison with the control ([1]; Experiment 5a text, combination at synergistically reduced concentrations): approximately 15% | inhibition of HIV-RT [1, 4]: 83% | inhibition of HIV-RT [1, 5]: some inhibition | group mean (X2/X3) +/- S.D. ([1]; Table 2a): X2 = 31.10 +/− 4.67 pg/well, % CV = 15.01% | % of control (of MEAN) ([1]; Table 5): 12.7% | MEAN (HIV-RT) [1]: 0.016 pg/well | % of control (of RANGE) ([1]; Table 5): 12.7% | MEAN X3 (HIV-RT) [1]: 0.022 ng/well | HIV-RT [1, 6]: 0.021 ng/well and 0.023 ng/well | HIV-RT (negative values set to 0) [1, 6]: 0.021 ng/well and 0.023 ng/well | inhibition of HIV-RT in supernatants [2]: Great inhibition | HIV-RT (negative values set to 0) [2]: 0 pg/well | inhibition of HIV-RNA in the supernatants in comparison to untreated control [3]: ~68% | % control [3]: 32.38% | MEAN N [3]: 42100 copies/mL | Log 10 N ([3]; listed as SAQ): 4.61 and 4.60 and 4.66 | MEAN ([3]; Table 8): 124762 copies/mL | N* ([3]; Table 8, per specimen, 90 min viral inoculation, MISID 0.685 uM, listed as SAQ): 122515 copies/mL and 128455 copies/mL and 123316 copies/mL | % OF CONTROL ([3]; Table 8 and Experiment 10): 63.82% | MEAN ([3]; Table 10): 2438 copies/mL | N* ([3]; Table 10, per specimen, 3TC 1 uM, listed as SAQ): 2816 copies/mL and 2375 copies/mL and 2122 copies/mL | % OF CONTROL ([3]; Table 10 and Experiment 11): approximately 55% | % OF CONTROL ([3]; Table 10 and Experiment 11, listed as SAQ): 55.08%

B1: PEG-ASNase: asparaginase conjugated with polyethylene glycol (PEG); sold under the name ONCASPAR by Rhône-Poulenc Rorer (conjugate, UniProt P00805 23-348, looked up)
L-asparaginase 2: LPNITILATGGTIAGGGDSATKSNYTVGKVGVENLVNAVPQLKDIANVKGEQVVNIGSQDMNDNVWLTLAKKINTDCDKTDGFVITHGTDTMEETAYFLDLTVKCDKPVVMVGAMRPSTSMSADGPFNLYNAVVTAADKASANRGVLVVMNDTVLDGRDVTKTNTTDVATFKSVNYGPLGYIHNGKIDYQRTPARKHTSDTPFDVSKLNELPKVGIVYNYANASDLPAKALVDAGYDGIVSAGVGNGNLYKSVFDTLATAAKTGTAVVRSSRVPTGATTQDAEVDDAKYGFVASGTLNPQKARVLLQLALTQTKDPQQIQQIFNQY
modifications: PEG conjugate (pegaspargase)
notes: asparaginase conjugated with polyethylene glycol (PEG); sold under the name ONCASPAR by Rhône-Poulenc Rorer
inhibition of intracellular HIV-RT as compared to untreated control ([1]; Example 1, day 7 pellets, PEG-ASNase 0.4 IU/ml, Saquinavir 25 μM, combination 0.233 IU/ml + 14.5 μM): about 30% | effect in inhibiting HIV-RT ([1]; Experiment 5a, day 7): moderate effect | inhibition of HIV-RT [1, 4]: 54% | inhibition of HIV-RT [1, 5]: some inhibition | group mean (X2/X3) +/- S.D. ([1]; Table 2a): X3 = 68.43 +/− 11.26 pg/well, % CV = 16.45% | % cont. [1, 7]: 79.9% and 68.0% and 57.4% | HIV-RT [1, 7]: 0.330 pg/well and 0.281 pg/well and 0.237 pg/well | % of control (of MEAN) ([1]; Table 5): 46.03% | RANGE (HIV-RT, low or zero wells left out) ([1]; Table 5): 0.085 pg/well | MEAN (HIV-RT) [1]: 0.058 pg/well | % of control (of RANGE) ([1]; Table 5): 67.46% | MEAN X3 (HIV-RT) [1]: 0.159 ng/well | HIV-RT [1, 8]: 0.201 ng/well and 0.142 ng/well and 0.133 ng/well | HIV-RT (negative values set to 0) [1, 8]: 0.201 ng/well and 0.142 ng/well and 0.133 ng/well | HIV-RT (negative values set to 0) [2]: 0 pg/well | inhibition of HIV-RNA in the supernatants in comparison to untreated control [3]: approximately 60% | % control [3]: 40.78% | MEAN N [3]: 53020 copies/mL | Log 10 N ([3]; listed as PEG): 4.71 and 4.72 and 4.73 | MEAN ([3]; Table 8): 143761 copies/mL | N* ([3]; Table 8, per specimen, 90 min viral inoculation, MISID 0.685 uM, listed as PEG): 147041 copies/mL and 142575 copies/mL and 141667 copies/mL | % OF CONTROL ([3]; Table 8 and Experiment 10): 73.54% | MEAN ([3]; Table 10): 3233 copies/mL | N* ([3]; Table 10, per specimen, 3TC 1 uM, listed as PEG): 3132 copies/mL and 3048 copies/mL and 3520 copies/mL | % OF CONTROL ([3]; Table 10 and Experiment 11): ~73% | % OF CONTROL ([3]; Table 10 and Experiment 11, listed as PEG): 73.06%
